System: PSMA-expressing LNCAP cancer xenografts
Assay: Biodistribution and tumor-to-background contrast ratios of 18F-labeled tracers
Type: in vivo, mouse (NODSCID 1L2RγKO male mice)
Procedure: LNCap cell line was obtained from ATCC (LNCaP clone FGC, CRL-1740). It was established from a metastatic site of left supraclavicular lymph node of human prostatic adenocarcinoma. Cells were cultured in PRMI 1640 medium supplemented with 10% FBS, penicillin (100 U/mL) and streptomycin (100 μg/mL) at 37° C. in a humidified incubator containing 5% CO2. Cells grown to 80-90% confluence were then washed with sterile phosphate-buffered saline (1×PBS pH 7.4) and trypsinization. The collected cells number was counted with a Hausser Scientific (Horsham, Pa.) Hemacytometer.
Imaging and biodistribution experiments were performed using NODSCID 1L2RγKO male mice. Mice were anesthetized by inhalation with 2% isoflurane in oxygen, and implanted subcutaneously with 1×10^7 LNCaP cells behind left shoulder. Mice were imaged or used in biodistribution studies when the tumor grew up to reach 5-8 mm in diameter during 5-6 weeks.
PET imaging experiments were conducted using Siemens Inveon micro PET/CT scanner. Each tumor bearing mouse was injected 6-8 MBq of F-18 labeled tracer through the tail vein under anesthesia (2% isoflurane in oxygen). The mice were allowed to recover and roam freely in their cage. After 50 min, the mice were sedated again with 2% isoflurane in oxygen inhalation and positioned in the scanner. A 10-min CT scan was conducted first for localization and attenuation correction after segmentation for reconstructing the PET images. Then, a 10-min static PET imaging was performed to determined uptake in tumor and other organs. The mice were kept warm by a heating pad during acquisition. For imaging studies acquired at 2 h post-injection (p.i.), the mice were placed in the micro PET/CT scanner at 110 min p.i. Then, the CT and PET acquisitions were conducted as described above.
For biodistribution studies, the mice were injected with the radiotracer as described above. At predetermined time points (1 or 2 h), the mice was anesthetized with 2% isoflurane inhalation, and euthanized by CO2 inhalation. Blood was withdrawn immediately from the heart, and the organs/tissues of interest were collected. The collected organs/tissues were weighed and counted using an automatic gamma counter. The uptake in each organ/tissue was normalized to the injected dose using a standard curve, and expressed as the percentage of the injected dose per gram of tissue (% ID/g).

| Biodistribution Adrenal glands (1 h) [% ID/g] | Biodistribution Blood (1 h) [% ID/g] | Biodistribution Bone (1 h) [% ID/g] | Biodistribution Brain (1 h) [% ID/g] | Biodistribution Fat (1 h) [% ID/g] | Biodistribution Heart (1 h) [% ID/g] | Biodistribution Intestine (1 h) [% ID/g] | Biodistribution Kidneys (1 h) [% ID/g] | Biodistribution Liver (1 h) [% ID/g] | Biodistribution Lungs (1 h) [% ID/g] | Biodistribution Muscle (1 h) [% ID/g] | Biodistribution Pancreas (1 h) [% ID/g] | Biodistribution Spleen (1 h) [% ID/g] | Biodistribution Stomach (1 h) [% ID/g] | Biodistribution Testes (1 h) [% ID/g] | Biodistribution Tumor (1 h) [% ID/g] | Tumor:Blood contrast ratio (1 h) | Tumor:Muscle contrast ratio (1 h) | Tumor:kidney contrast ratio (1 h) | Biodistribution Adrenal glands (2 h) [% ID/g] | Structure (SMILES) | other results |
| --- | --- | --- | --- | --- | --- | --- | --- | --- | --- | --- | --- | --- | --- | --- | --- | --- | --- | --- | --- | --- | --- |
| 4.77 ± 1.75 | 0.57 ± 0.15 | 0.36 ± 0.02 | 0.04 ± 0.01 | 0.99 ± 0.39 | 0.30 ± 0.06 | 0.54 ± 0.11 | 114 ± 41.3 | 2.90 ± 0.56 | 1.37 ± 0.36 | 0.26 ± 0.08 | 0.55 ± 0.16 | 2.67 ± 0.98 | 0.12 ± 0.05 | 0.62 ± 0.15 | 6.04 ± 1.24 | 10.8 ± 1.64 | 23.4 ± 3.71 | 0.07 ± 0.06 | 3.66 ± 2.01 | C[N+](C)(Cc1ccc(C(=O)NCCCC[C@H](NC(=O)N[C@@H](CCC(=O)O)C(=O)O)C(=O)O)cc1)C[B-](F)(F)[18F] [F-18 HTK-01069] | Biodistribution Blood (2 h): 0.24 ± 0.10 % ID/g; Biodistribution Bone (2 h): 0.30 ± 0.10 % ID/g; Biodistribution Brain (2 h): 0.04 ± 0.01 % ID/g; Biodistribution Fat (2 h): 0.86 ± 0.53 % ID/g; Biodistribution Heart (2 h): 0.20 ± 0.08 % ID/g; Biodistribution Intestine (2 h): 0.72 ± 0.15 % ID/g; Biodistribution Kidneys (2 h): 103 ± 56.7 % ID/g; Biodistribution Liver (2 h): 2.75 ± 0.56 % ID/g; Biodistribution Lungs (2 h): 0.99 ± 0.32 % ID/g; Biodistribution Muscle (2 h): 0.15 ± 0.04 % ID/g; Biodistribution Pancreas (2 h): 0.41 ± 0.20 % ID/g; Biodistribution Spleen (2 h): 1.93 ± 0.85 % ID/g; Biodistribution Stomach (2 h): 0.09 ± 0.03 % ID/g; Biodistribution Testes (2 h): 0.40 ± 0.06 % ID/g; Biodistribution Tumor (2 h): 5.47 ± 0.75 % ID/g; Tumor:Blood contrast ratio (2 h): 26.9 ± 13.3; Tumor:Muscle contrast ratio (2 h): 37.4 ± 8.86; Tumor:kidney contrast ratio (2 h): 0.07 ± 0.03 |
| 4.65 ± 1.75 | 0.52 ± 0.06 | 0.44 ± 0.09 | 0.04 ± 0.01 | 0.73 ± 0.26 | 0.33 ± 0.08 | 0.33 ± 0.05 | 71.7 ± 18.0 | 1.69 ± 0.19 | 1.39 ± 0.17 | 0.23 ± 0.04 | 0.33 ± 0.05 | 5.01 ± 0.64 | 0.10 ± 0.03 | 0.67 ± 0.17 | 8.28 ± 1.25 | 16.0 ± 1.37 | 37.3 ± 9.53 | 0.12 ± 0.04 | 2.11 ± 0.78 | C[N+](C)(Cc1cn(Cc2ccc(C(=O)NCCCC[C@H](NC(=O)N[C@@H](CCC(=O)O)C(=O)O)C(=O)O)cc2)nn1)C[B-](F)(F)[18F] [F-18 HTK-01070] | Biodistribution Blood (2 h): 0.23 ± 0.11 % ID/g; Biodistribution Bone (2 h): 0.30 ± 0.06 % ID/g; Biodistribution Brain (2 h): 0.03 ± 0.01 % ID/g; Biodistribution Fat (2 h): 0.62 ± 0.34 % ID/g; Biodistribution Heart (2 h): 0.13 ± 0.06 % ID/g; Biodistribution Intestine (2 h): 0.29 ± 0.08 % ID/g; Biodistribution Kidneys (2 h): 68.5 ± 28.7 % ID/g; Biodistribution Liver (2 h): 1.50 ± 0.30 % ID/g; Biodistribution Lungs (2 h): 0.69 ± 0.23 % ID/g; Biodistribution Muscle (2 h): 0.12 ± 0.03 % ID/g; Biodistribution Pancreas (2 h): 0.21 ± 0.07 % ID/g; Biodistribution Spleen (2 h): 1.30 ± 0.48 % ID/g; Biodistribution Stomach (2 h): 0.06 ± 0.02 % ID/g; Biodistribution Testes (2 h): 0.36 ± 0.21 % ID/g; Biodistribution Tumor (2 h): 7.56 ± 1.57 % ID/g; Tumor:Blood contrast ratio (2 h): 38.9 ± 18.8; Tumor:Muscle contrast ratio (2 h): 67.7 ± 14.8; Tumor:kidney contrast ratio (2 h): 0.14 ± 0.10 |

From patent publication US10882871B2, “18/19F-labelled compounds which target the prostate specific membrane antigen” (BRITISH COLUMBIA CANCER AGENCY BRANCH, priority 2016, dated 2021)
